According to ChEMBL document CHEMBL5338785, “Development of Aromatic-Linked Diamino Acid Antimicrobial Peptide Mimics with Low Hemolytic Toxicity and Excellent Activity against Methicillin-Resistant Staphylococcus aureus (MRSA)” (J Med Chem, 2023):
Converted amounts (≈) assume the structure as drawn.

Tests used:
Escherichia coli = experiment: Antibacterial activity against Escherichia coli assessed as bacterial growth inhibition incubated for 18 hrs by CLSI protocol based Mueller-Hinton broth assay; format: functional; conditions: Escherichia coli, read-out: MIC
Staphylococcus aureus = experiment: Antibacterial activity against methicillin-resistant Staphylococcus aureus assessed as bacterial growth inhibition incubated for 18 hrs by CLSI protocol based Mueller-Hinton broth assay; format: functional; conditions: Staphylococcus aureus, read-out: MIC
Enterococcus faecalis = experiment: Antibacterial activity against Enterococcus faecalis assessed as bacterial growth inhibition incubated for 18 hrs by CLSI protocol based Mueller-Hinton broth assay; format: functional; conditions: Enterococcus faecalis, 18 h, read-out: MIC
[1] = system: Stenotrophomonas maltophilia; experiment: Antibacterial activity against Stenotrophomonas maltophilia assessed as bacterial growth inhibition incubated for 18 hrs by CLSI protocol based Mueller-Hinton broth assay; format: functional; conditions: Stenotrophomonas maltophilia, read-out: MIC
[2] = Selectivity index, ratio of HC50 for hemolytic activity in sheep RBC to MIC for antibacterial activity against methicillin-resistant Staphylococcus aureus assessed as bacterial growth inhibition; format: toxicity; conditions: sheep red blood cells
[3] = Hemolytic activity in sheep RBC assessed as hemolysis incubated for 1 hr by microplate reader method; format: toxicity, cell-based, Ovis aries, Erythrocyte; conditions: sheep red blood cells

Compound | MIC (Escherichia coli; 18 h) | MIC (Staphylococcus aureus) | MIC (Enterococcus faecalis) | MIC [1] | selectivity ratio [2] | HC50 at 1 h [3] | MIC (Escherichia coli)
CCCCCCCCN(CCCOc1ccc(-c2ccc(OCCCN(CCCCCCCC)C(=O)[C@@H](N)CCCCN)cc2)cc1)C(=O)[C@@H](N)CCCCN.Cl.Cl.Cl.Cl | 4 µg/mL | 2 µg/mL | 2 µg/mL | 4 µg/mL | < 0.125 | < 0.25 µg/mL | 
CCCCCCN(CCOc1ccc(OCCN(CCCCCC)C(=O)[C@@H](N)CCCCN)cc1)C(=O)[C@@H](N)CCCCN.Cl.Cl.Cl.Cl | 64 µg/mL | 4 µg/mL | 8 µg/mL | 64 µg/mL | > 250 | > 1000 µg/mL | 
CCCCCCCCN(CCCCOc1ccc(OCCCCN(CCCCCCCC)C(=O)[C@@H](N)CCCCN)cc1)C(=O)[C@@H](N)CCCCN.Cl.Cl.Cl.Cl | 2 µg/mL | 2 µg/mL | 1 µg/mL | 1 µg/mL | 14 | 28 µg/mL | 
CCCCCCCN(CCOc1ccc(OCCN(CCCCCCC)C(=O)[C@@H](N)CC(C)C)cc1)C(=O)[C@@H](N)CC(C)C.Cl.Cl | 2 µg/mL | < 0.25 µg/mL | 0.5 µg/mL | 1 µg/mL | > 144 | 36 µg/mL | 
CCCCCCCCCCN(CCOc1ccc(OCCN(CCCCCCCCCC)C(=O)[C@@H](N)CCCCN)cc1)C(=O)[C@@H](N)CCCCN.Cl.Cl.Cl.Cl | 4 µg/mL | 4 µg/mL | 2 µg/mL | 2 µg/mL | < 0.625 | < 2.5 µg/mL | 
CCCCCCN(CCCOc1ccc(-c2ccc(OCCCN(CCCCCC)C(=O)[C@@H](N)CCCCN)cc2)cc1)C(=O)[C@@H](N)CCCCN.Cl.Cl.Cl.Cl | 1 µg/mL | 1 µg/mL | 1 µg/mL | 1 µg/mL | 170 | 170 µg/mL | 
CCCCCCCCN(CCCOc1ccc2c(OCCCN(CCCCCCCC)C(=O)[C@@H](N)CCCCN)cccc2c1)C(=O)[C@@H](N)CCCN.Cl.Cl.Cl.Cl | 1 µg/mL | 1 µg/mL | 1 µg/mL | 1 µg/mL | 14 | 14 µg/mL | 
CCCCCCCCCN(CCCOc1ccc(OCCCN(CCCCCCCCC)C(=O)[C@@H](N)CCCCN)cc1)C(=O)[C@@H](N)CCCCN.Cl.Cl.Cl.Cl | 2 µg/mL | 2 µg/mL | 1 µg/mL | 1 µg/mL | 10.5 | 11 µg/mL | 
CCCCCCCCCN(CCOc1ccc(OCCN(CCCCCCCCC)C(=O)[C@@H](N)CCCCN)cc1)C(=O)[C@@H](N)CCCCN.Cl.Cl.Cl.Cl | 2 µg/mL | 2 µg/mL | 1 µg/mL | 2 µg/mL | 10.5 | 21 µg/mL | 
CCCCCCN(CCCOc1ccccc1)C(=O)[C@@H](N)CCCCN.Cl.Cl | 128 µg/mL | 64 µg/mL | 64 µg/mL | 128 µg/mL | > 15.6 | > 1000 µg/mL | 
CCCCCCCCN(CCCOc1cccc(-c2cccc(OCCCN(CCCCCCCC)C(=O)[C@@H](N)CCCCN)c2)c1)C(=O)[C@@H](N)CCCCN.Cl.Cl.Cl.Cl | 2 µg/mL | 2 µg/mL | 1 µg/mL | 2 µg/mL | 7.5 | 15 µg/mL | 
CCCCCCCCCN(CCCOc1ccccc1)C(=O)[C@@H](N)CCCCN.Cl.Cl | 8 µg/mL | 2 µg/mL | 2 µg/mL | 8 µg/mL | 45.5 | 89 µg/mL | 
CCCCCCCCCN(CCCCOc1ccc(OCCCCN(CCCCCCCCC)C(=O)[C@@H](N)CCCCN)cc1)C(=O)[C@@H](N)CCCCN.Cl.Cl.Cl.Cl | 2 µg/mL | 2 µg/mL | 1 µg/mL | 1 µg/mL | 6 | 12 µg/mL | 
CCCCCCCCN(CCCOc1ccc2ccccc2c1-c1c(OCCCN(CCCCCCCC)C(=O)[C@@H](N)CCCCN)ccc2ccccc12)C(=O)[C@@H](N)CCCCN.Cl.Cl.Cl.Cl (stereo in doubt; 8o) | 8 µg/mL | 4 µg/mL | 2 µg/mL | 4 µg/mL | 25 | 100 µg/mL | 
CCCCCCN(CCCOc1ccccc1OCCCN(CCCCCC)C(=O)[C@@H](N)CCCCN)C(=O)[C@@H](N)CCCCN.Cl.Cl.Cl.Cl | 64 µg/mL | 8 µg/mL | 8 µg/mL | 32 µg/mL | > 125 | > 1000 µg/mL | 
CCCCCCCCN(CCCOc1ccccc1-c1ccccc1OCCCN(CCCCCCCC)C(=O)[C@@H](N)CCCCN)C(=O)[C@@H](N)CCCCN.Cl.Cl.Cl.Cl | 2 µg/mL | 4 µg/mL | 1 µg/mL | 2 µg/mL | 5 | 20 µg/mL | 
CCCCCCCN(CCCCOc1ccc(OCCCCN(CCCCCCC)C(=O)[C@@H](N)CCCCN)cc1)C(=O)[C@@H](N)CCCCN.Cl.Cl.Cl.Cl | 1 µg/mL | 2 µg/mL | 1 µg/mL | 1 µg/mL | 74 | 148 µg/mL | 
CCCCCCCCN(CCCOc1ccc(OCCCN(CCCCCCCC)C(=O)[C@@H](N)CCCCN)cc1)C(=O)[C@@H](N)CCCCN.Cl.Cl.Cl.Cl | 2 µg/mL | 2 µg/mL | 1 µg/mL | 1 µg/mL | 18.5 | 37 µg/mL | 
CCCCCCN(CCCOc1cccc(-c2cccc(OCCCN(CCCCCC)C(=O)[C@@H](N)CCCCN)c2)c1)C(=O)[C@@H](N)CCCCN.Cl.Cl.Cl.Cl | 1 µg/mL | 0.5 µg/mL | 0.5 µg/mL | 1 µg/mL | 432 | 216 µg/mL | 
CCCCCCCCN(CCCOc1cc2ccccc2cc1OCCCN(CCCCCCCC)C(=O)[C@@H](N)CCCCN)C(=O)[C@@H](N)CCCCN.Cl.Cl.Cl.Cl | 2 µg/mL | 1 µg/mL | 1 µg/mL | 1 µg/mL | 68 | 68 µg/mL | 
CCCCN(CCCOc1ccccc1-c1ccccc1OCCCN(CCCC)C(=O)[C@@H](N)CCCCN)C(=O)[C@@H](N)CCCCN.Cl.Cl.Cl.Cl | 32 µg/mL | 8 µg/mL | 8 µg/mL | 32 µg/mL | > 125 | > 1000 µg/mL | 
C[C@@H](O)[C@H]1C(=O)N2C(C(=O)O)=C(S[C@@H]3CN[C@H](C(=O)N(C)C)C3)[C@H](C)[C@H]12 [MEROPENEM] |  |  |  |  |  |  | 0.062 µg/mL (≈ 0.162 µM)
CCCCCCCN(CCOc1ccc(OCCN(CCCCCCC)C(=O)[C@@H](N)[C@@H](C)CC)cc1)C(=O)[C@@H](N)[C@@H](C)CC.Cl.Cl | 2 µg/mL | 0.5 µg/mL | 1 µg/mL | 2 µg/mL | 94 | 47 µg/mL | 
CCCCCCCN(CCOc1ccc(OCCN(CCCCCCC)C(=O)[C@H](C)N)cc1)C(=O)[C@H](C)N.Cl.Cl | 2 µg/mL | 1 µg/mL | 2 µg/mL | 2 µg/mL | 76 | 76 µg/mL | 
CCCCCCCCN(CCOc1ccc(OCCN(CCCCCCCC)C(=O)[C@@H](N)CCCCN)cc1)C(=O)[C@@H](N)CCCCN.Cl.Cl.Cl.Cl | 2 µg/mL | 1 µg/mL | 0.5 µg/mL | 1 µg/mL | 93 | 93 µg/mL | 
CCCCCCCN(CCOc1ccc(OCCN(CCCCCCC)C(=O)[C@@H](N)Cc2ccccc2)cc1)C(=O)[C@@H](N)Cc1ccccc1.Cl.Cl | > 128 µg/mL | 2 µg/mL | 1 µg/mL | > 128 µg/mL | 72.5 | 145 µg/mL | 
